Converted amounts (≈) assume the structure as drawn. Values belong to the molecule of their own block, whether it stands above or below them.
Key:
[1] = Selectivity index, ratio of IC50 for rat L6 cells to IC50 for erythrocytic Plasmodium falciparum K1; assay type: toxicity; conditions: read-out: Ratio IC50
Plasmodium berghei [2] = assay: Antimalarial activity against erythrocytic Plasmodium berghei ANKA infected in NMRI mouse assessed as reduction in parasitemia at 40 mg/kg, ip administered for 4 consecutive days measured after 24 hrs post last dose by FACS analysis relative to control; assay type: functional; parameters: scale not given: the % may be the effect or the level left
[3] = Resistance index, ratio of IC50 for erythrocytic Plasmodium falciparum K1 to IC50 for erythrocytic Plasmodium falciparum NF54
Hemozoin [4] = assay: Inhibition of detergent-mediated beta-hematin formation incubated for 5 to 6 hrs by absorbance based assay
Plasmodium falciparum [5] = assay: Antimalarial activity against erythrocytic Plasmodium falciparum NF54 assessed as parasite growth inhibition incubated for 48 hrs by [3H]-hypoxanthine incorporation assay; assay type: functional, organism-based
Plasmodium falciparum [6] = assay: Antimalarial activity against erythrocytic chloroquine/pyrimethamine resistant Plasmodium falciparum K1 assessed as parasite growth inhibition incubated for 48 hrs by [3H]-hypoxanthine incorporation assay; assay type: functional, organism-based
[7] = Selectivity index, ratio of IC50 for rat L6 cells to IC50 for erythrocytic Plasmodium falciparum NF54; assay type: toxicity; conditions: read-out: Ratio IC50
[8] = Cytotoxicity against rat L6 cells assessed as cell growth inhibition incubated for 70 hrs by alamar blue staining based microscopy; assay type: toxicity
HCT-116 [9] = assay: Antiproliferative activity against human HCT-116 cells assessed as cell growth inhibition incubated for 96 hrs by MTS assay; assay type: functional, cell-based; conditions: HCT-116, 96 h
[10] = molecular target: DNA topoisomerase 2-beta (Homo sapiens) (UniProt Q02880); assay: Inhibition of human topoisomerase-2-beta
Chain of DNA topoisomerase 2-beta (Homo sapiens) (Q02880 whole entry): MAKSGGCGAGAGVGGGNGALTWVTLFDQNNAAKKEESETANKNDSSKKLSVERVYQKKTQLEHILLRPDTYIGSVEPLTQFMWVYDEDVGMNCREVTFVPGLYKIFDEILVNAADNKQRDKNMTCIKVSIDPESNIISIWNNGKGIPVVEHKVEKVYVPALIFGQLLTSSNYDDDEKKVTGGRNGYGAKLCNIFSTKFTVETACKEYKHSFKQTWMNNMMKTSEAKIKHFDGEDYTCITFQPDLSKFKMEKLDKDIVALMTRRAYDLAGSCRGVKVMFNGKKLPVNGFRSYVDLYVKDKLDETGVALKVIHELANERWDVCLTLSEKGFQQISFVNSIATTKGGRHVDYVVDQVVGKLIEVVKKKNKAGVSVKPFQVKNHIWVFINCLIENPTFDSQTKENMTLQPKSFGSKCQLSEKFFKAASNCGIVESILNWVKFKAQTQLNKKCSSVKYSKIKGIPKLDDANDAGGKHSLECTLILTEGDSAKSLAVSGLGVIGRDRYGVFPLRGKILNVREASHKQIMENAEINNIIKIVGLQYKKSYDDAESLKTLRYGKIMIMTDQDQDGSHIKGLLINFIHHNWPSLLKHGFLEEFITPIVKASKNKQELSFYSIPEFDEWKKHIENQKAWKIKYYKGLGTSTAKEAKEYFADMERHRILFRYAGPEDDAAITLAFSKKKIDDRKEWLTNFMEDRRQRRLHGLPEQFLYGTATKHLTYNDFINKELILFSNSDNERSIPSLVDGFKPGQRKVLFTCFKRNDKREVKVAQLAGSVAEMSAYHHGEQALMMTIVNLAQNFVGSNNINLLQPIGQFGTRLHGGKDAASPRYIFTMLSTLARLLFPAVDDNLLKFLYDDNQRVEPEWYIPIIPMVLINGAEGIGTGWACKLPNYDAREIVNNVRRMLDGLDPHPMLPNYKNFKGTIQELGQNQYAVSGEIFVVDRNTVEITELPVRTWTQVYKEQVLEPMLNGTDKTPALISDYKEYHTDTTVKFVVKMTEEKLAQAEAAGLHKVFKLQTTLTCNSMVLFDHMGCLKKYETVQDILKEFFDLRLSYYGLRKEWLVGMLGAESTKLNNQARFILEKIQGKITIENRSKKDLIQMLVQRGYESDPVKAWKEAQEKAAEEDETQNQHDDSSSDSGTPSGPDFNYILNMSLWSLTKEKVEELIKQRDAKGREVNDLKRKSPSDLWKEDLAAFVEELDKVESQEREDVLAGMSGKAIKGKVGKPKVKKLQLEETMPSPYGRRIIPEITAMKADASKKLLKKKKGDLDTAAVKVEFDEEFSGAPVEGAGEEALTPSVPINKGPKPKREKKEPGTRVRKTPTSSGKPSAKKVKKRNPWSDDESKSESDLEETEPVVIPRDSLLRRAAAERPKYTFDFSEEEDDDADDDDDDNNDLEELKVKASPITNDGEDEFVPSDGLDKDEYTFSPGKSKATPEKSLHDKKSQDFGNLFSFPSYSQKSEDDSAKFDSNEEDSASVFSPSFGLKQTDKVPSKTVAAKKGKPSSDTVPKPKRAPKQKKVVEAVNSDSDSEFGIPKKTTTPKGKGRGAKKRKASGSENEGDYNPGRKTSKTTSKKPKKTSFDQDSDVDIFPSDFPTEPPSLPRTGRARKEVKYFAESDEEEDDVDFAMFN

A549 = assay: Antiproliferative activity against human A549 cells assessed as cell growth inhibition; assay type: functional, cell-based
Plasmodium berghei [11] = assay: Antimalarial activity against Plasmodium berghei NK65 infected in Webster Swiss mouse assessed as parasite growth inhibition at 50 mg/kg/day, po for 5 days by geimsa dye based microscopy relative to control; assay type: functional; parameters: scale not given: the % may be the effect or the level left; conditions: time 5 day
MCF7 = assay: Antiproliferative activity against human MCF7 cells assessed as cell growth inhibition; assay type: functional, cell-based
Hemozoin [12] = assay: Inhibition of beta-hematin formation
[13] = Cytotoxicity against rat L6 cells assessed as cell growth inhibition; assay type: toxicity, cell-based
Plasmodium falciparum [14] = assay: Antimalarial activity against Plasmodium falciparum NF54 assessed as parasite growth inhibition; assay type: functional, organism-based
Plasmodium falciparum [15] = assay: Antimalarial activity against chloroquine/mefloquine resistant Plasmodium falciparum clinical isolates assessed as parasite growth inhibition incubated for 24 hrs by microtechnique method; assay type: functional, organism-based
Plasmodium falciparum [16] = assay: Antimalarial activity against Plasmodium falciparum K1 assessed as parasite growth inhibition; assay type: functional, organism-based
[17] = molecular target: Telomerase reverse transcriptase (Homo sapiens, UniProt O14746); assay: Inhibition of telomerase derived from human K562 cell extract incubated for 30 mins by TRAP assay; assay type: cell-free
Chain of Telomerase reverse transcriptase (O14746 whole entry): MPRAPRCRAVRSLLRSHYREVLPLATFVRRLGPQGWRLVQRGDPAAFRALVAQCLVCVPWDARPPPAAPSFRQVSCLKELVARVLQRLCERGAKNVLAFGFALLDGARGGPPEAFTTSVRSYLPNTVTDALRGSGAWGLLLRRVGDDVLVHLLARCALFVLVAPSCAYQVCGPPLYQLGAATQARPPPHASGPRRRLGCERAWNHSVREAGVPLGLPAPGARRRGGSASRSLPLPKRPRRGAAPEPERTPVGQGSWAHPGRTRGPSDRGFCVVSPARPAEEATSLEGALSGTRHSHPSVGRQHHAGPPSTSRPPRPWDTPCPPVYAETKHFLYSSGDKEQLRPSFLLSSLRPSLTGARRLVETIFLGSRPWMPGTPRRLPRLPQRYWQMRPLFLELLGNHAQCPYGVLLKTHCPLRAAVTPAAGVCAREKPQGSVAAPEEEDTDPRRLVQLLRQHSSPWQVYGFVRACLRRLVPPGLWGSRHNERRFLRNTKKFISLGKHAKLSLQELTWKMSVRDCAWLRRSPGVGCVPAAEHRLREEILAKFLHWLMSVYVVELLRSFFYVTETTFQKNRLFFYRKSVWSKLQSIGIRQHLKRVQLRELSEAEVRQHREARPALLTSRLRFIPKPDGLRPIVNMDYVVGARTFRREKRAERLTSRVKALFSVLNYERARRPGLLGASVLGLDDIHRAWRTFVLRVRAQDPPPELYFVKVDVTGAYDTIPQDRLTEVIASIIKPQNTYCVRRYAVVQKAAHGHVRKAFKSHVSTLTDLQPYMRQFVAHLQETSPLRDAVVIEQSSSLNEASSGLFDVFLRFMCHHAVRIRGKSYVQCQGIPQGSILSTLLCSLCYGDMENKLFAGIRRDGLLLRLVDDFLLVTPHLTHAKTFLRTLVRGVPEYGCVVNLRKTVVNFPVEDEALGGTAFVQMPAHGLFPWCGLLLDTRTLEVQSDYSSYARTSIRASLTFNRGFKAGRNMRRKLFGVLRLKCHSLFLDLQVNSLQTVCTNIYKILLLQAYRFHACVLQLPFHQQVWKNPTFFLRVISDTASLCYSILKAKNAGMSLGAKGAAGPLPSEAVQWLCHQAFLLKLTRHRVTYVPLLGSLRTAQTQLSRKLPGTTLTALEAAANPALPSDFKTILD

[18] = Selectivity index, ratio of IC50 for rat L6 cells to IC50 for Plasmodium falciparum NF54; assay type: toxicity; conditions: read-out: Ratio IC50
Trypanosoma brucei = assay: Antitrypanosomal activity against Trypanosoma brucei assessed as parasite growth inhibition; assay type: functional, organism-based
HeLa = assay: Antiproliferative activity against human HeLa cells assessed as cell growth inhibition; assay type: functional, cell-based
DU-145 = assay: Antiproliferative activity against human DU-145 cells assessed as cell growth inhibition; assay type: functional
HCT-116 [19] = assay: Antiproliferative activity against human HCT-116 cells assessed as cell growth inhibition; assay type: functional, cell-based
K562 = assay: Antiproliferative activity against human K562 cells assessed as cell growth inhibition; assay type: functional
SR = assay: Antiproliferative activity against human SR cells assessed as cell growth inhibition; assay type: functional
RPMI-8226 = assay: Antiproliferative activity against human RPMI-8226 cells assessed as cell growth inhibition; assay type: functional
HL-60 = assay: Antiproliferative activity against human HL-60 cells assessed as cell growth inhibition; assay type: functional
MOLT-4 = assay: Antiproliferative activity against human MOLT-4 cells assessed as cell growth inhibition; assay type: functional

Compound: C[C@H]1[C@H](OC(=O)CCC(=O)NCCCNc2c3ccccc3[n+](C)c3[nH]c4ccccc4c23)O[C@@H]2O[C@@]3(C)CC[C@H]4[C@H](C)CC[C@@H]1[C@@]24OO3
selectivity ratio [1]: 3640 | Activity (Plasmodium berghei [2]): 89.6% | Ratio IC50 [3]: 0.93 | IC50 (Hemozoin [4]): 222 µM | IC50 (Plasmodium falciparum [5]): 0.00045 µM | IC50 (Plasmodium falciparum [6]): 0.00042 µM | selectivity ratio [7]: 3400 | IC50 at 70 h [8]: 1.53 µM

IC50 (HCT-116 [9]): 4.5 µM
Compound: CCN(CC)CCOC(=O)c1ccc2c(c1)c1c(c(=O)c3ccccc3n1CCN(CC)CC)n2CCN(CC)CC

MIC [10]: 0.25 µM (≈ 0.0581 µg/mL) | IC50 (A549): 1.05 µM | IC50 (MCF7): 0.63 µM
Compound: C[n+]1c2ccccc2cc2[n-]c3ccccc3c21 [CRYPTOLEPINE]
Activity (Plasmodium berghei [11]): 43%

IC50 (Hemozoin [12]): 10.1 µM
Compound: Cn1c2nc3ccccc3c-2c(NCC(C)(C)CNC(=O)Nc2ccccc2)c2cc(Cl)ccc21
IC50 [13]: 1.18 µM | IC50 (Plasmodium falciparum [14]): 0.019 µM

Compound: COc1ccc2[nH]c3c4ccc(Cl)cc4ncc3c2c1
IC50 (Plasmodium falciparum [15]): 0.002 µM

Compound: C[C@H]1[C@H](OC(=O)CCC(=O)NCCCNc2nc3ccccc3c3[nH]c4ccccc4c23)O[C@@H]2O[C@@]3(C)CC[C@H]4[C@H](C)CC[C@@H]1[C@@]24OO3
selectivity ratio [1]: 3280 | IC50 (Hemozoin [4]): 15.7 µM

Compound: CCN(CC)Cc1cc2[nH]c3c4ccc(Cl)cc4ncc3c2cc1OC
IC50 (Plasmodium falciparum [16]): 0.009 µM

IC50 [17]: 2.35 µM
Compound: OCCNc1c2ccccc2nc2c1[nH]c1ccccc12

IC50 (Hemozoin [12]): 34.1 µM
Compound: Cn1c2nc3ccccc3c-2c(NCC(C)(C)CNC(=S)Nc2ccccc2)c2cc(Cl)ccc21
IC50 [13]: 3.27 µM | IC50 (Plasmodium falciparum [14]): 0.019 µM | selectivity ratio [18]: 164

IC50 (Hemozoin [12]): 26.3 µM
Compound: Cn1c2nc3ccccc3c-2c(NCC(C)(C)CNC(=O)Nc2ccccc2)c2ccccc21
IC50 [13]: 5.65 µM | IC50 (Plasmodium falciparum [14]): 0.068 µM | selectivity ratio [18]: 82.2

IC50 [17]: 0.55 µM
Compound: c1ccc2c(NCCN3CCOCC3)c3[nH]c4ccccc4c3nc2c1

Compound: Cn1c2nc3ccccc3c-2c(NCCCN2C(=O)c3ccccc3SC2c2ccc(Cl)cc2)c2ccccc21 (stereo not drawn)
IC50 (Plasmodium falciparum [14]): 0.0026 µM | selectivity ratio [18]: 361 | IC50 (Trypanosoma brucei): 0.868 µM

IC50 (Trypanosoma brucei): 1.37 µM
Compound: CN(C)c1ccc(C2SCC(=O)N2CCCNc2c3c4ccccc4nc-3n(C)c3ccccc23)cc1 (stereo not drawn)

MIC [10]: 0.5 µM | IC50 (A549): 0.47 µM | IC50 (MCF7): 5.9 µM
Compound: CCCCNc1c2ccccc2[n+](C)c2c1[nH]c1ccccc12

GI50 (HeLa): 9.9 µM | GI50 (A549): 7.7 µM | GI50 (DU-145): 9.4 µM | GI50 (MCF7): 11.9 µM
Compound: C=CCn1c2ccccc2c2c(C(=O)NC3CCCCC3)c3cc(F)ccc3nc21

Compound: C[C@H]1[C@H](OC(=O)CCC(=O)NCCCNc2c3ccccc3nc3c2[nH]c2ccccc23)O[C@@H]2O[C@@]3(C)CC[C@H]4[C@H](C)CC[C@@H]1[C@@]24OO3
IC50 (Hemozoin [4]): 17.1 µM | selectivity ratio [7]: 1720

IC50 (HCT-116 [19]): 0.8 µM
Compound: O=C(NCCNc1c2ccccc2nc2c1[nH]c1ccccc12)c1ccccc1

GI50 (K562): 11.5 µM | GI50 (RPMI-8226): 6.04 µM | GI50 (HL-60): 9.88 µM | GI50 (MOLT-4): 4.7 µM
Compound: COc1c2c3ccccc3nc-2n(C)c2ccccc12
GI50 (SR): 7.1 µM

Compound: COc1cc2c(cc1CN1CCN(C)CC1)[nH]c1c3ccc(Cl)cc3ncc21
IC50 (Plasmodium falciparum [16]): 0.0024 µM

IC50 (HCT-116 [19]): 15.7 µM
Compound: CN(CCCNc1c2ccccc2nc2c1[nH]c1ccccc12)C(=O)c1cccc(B(O)O)c1

IC50 [17]: 1.12 µM
Compound: CN(C)CCNc1c2ccccc2nc2c1[nH]c1ccccc12

IC50 (Hemozoin [12]): 104 µM
Compound: COC(=O)c1ccc2c(c1)c(NCCCN)c1c3ccccc3nc-1n2C
